How the values were obtained:
Type in all cases: biochemical
[1] = target: T1, PDE4B1 (Homo sapiens, UniProt Q07343); assay: PDE4B1 enzyme inhibition (HTRF, cAMP substrate); conditions: human recombinant enzyme (Sf9); FIGS. 14 and 15; test concentration not given
T1 construct: host or cells: Sf9
Source text: (§1) The effects of the BL-230 and BL-236 compounds on the activity of the human enzymes PDE2A1, PDE3A, PDE4A1A, PDE4B1, PDE7A, PDE8A1, and PDE10A2 and PDE11A4 were quantified by measuring the production of adenosine 5′-monophosphate (5′AMP) from cyclic adenosine monophosphate (cAMP), with human recombinant enzyme expressed in Sf9 cells and the detection method was by using HTRF®.
(§2) The test compound, the reference compound or water (control) were mixed with the enzyme (the enzymes and their amounts used are described in Table 1) in a buffer containing 44.4 mM Tris-HCl, 5.28 mM MgCl2, 2.64 mM DTT and 0.044% Tween® 20 (pH 7.8). Then, the reaction was initiated by the addition of 40 nM of cAMP substrate and the mixture was incubated for 30 minutes at room temperature. For basal control measurements, the enzyme was omitted from the reaction mixture. The fluorescence acceptor (Dye2 labeled cAMP) and fluorescence donor (anti-cAMP antibody labeled with europium cryptate) were added in the presence of 1 mM IBMX. After 60 minutes, the fluorescence corresponding to the amount of transfer residual cAMP was measured at λex=337 nm, λem=620 nm and λem=665 nm using a microplate reader (RubyStar, BMG). The enzyme activity was determined by the signal division measured at 665 nm, by the measured signal at 620 nm (right). The results were expressed as a inhibition percentage of the control enzyme activity. […]

[2] = target: T2, PDE8A1 (Homo sapiens, UniProt O60658); assay: PDE8A1 enzyme inhibition (HTRF, cAMP substrate); conditions: human recombinant enzyme (Sf9); FIGS. 14 and 15; test concentration not given
T2 construct: host or cells: Sf9
T2 sequence (O60658 whole entry): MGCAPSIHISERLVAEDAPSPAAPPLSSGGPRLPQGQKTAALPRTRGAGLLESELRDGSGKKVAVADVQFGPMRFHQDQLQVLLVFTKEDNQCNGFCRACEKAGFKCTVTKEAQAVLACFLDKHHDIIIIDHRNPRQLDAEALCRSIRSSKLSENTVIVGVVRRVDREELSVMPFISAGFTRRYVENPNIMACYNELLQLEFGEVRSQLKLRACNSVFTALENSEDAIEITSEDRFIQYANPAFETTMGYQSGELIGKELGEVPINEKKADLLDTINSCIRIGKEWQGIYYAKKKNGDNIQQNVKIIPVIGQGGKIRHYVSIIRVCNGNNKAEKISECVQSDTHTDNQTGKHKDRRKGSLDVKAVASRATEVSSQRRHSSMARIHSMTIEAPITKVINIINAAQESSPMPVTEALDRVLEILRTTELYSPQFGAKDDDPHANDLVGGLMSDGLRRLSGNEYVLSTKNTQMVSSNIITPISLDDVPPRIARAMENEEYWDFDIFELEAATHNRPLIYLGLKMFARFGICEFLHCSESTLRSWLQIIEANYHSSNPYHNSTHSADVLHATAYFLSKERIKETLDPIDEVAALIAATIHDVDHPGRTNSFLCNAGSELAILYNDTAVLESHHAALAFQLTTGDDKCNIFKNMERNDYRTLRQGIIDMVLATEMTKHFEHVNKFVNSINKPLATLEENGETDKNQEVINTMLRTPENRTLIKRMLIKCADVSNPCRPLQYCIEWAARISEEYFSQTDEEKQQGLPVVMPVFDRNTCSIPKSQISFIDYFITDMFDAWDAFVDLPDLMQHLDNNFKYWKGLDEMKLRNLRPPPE
Source text: as §1, §2

[3] = target: T3, PDE1B (Homo sapiens, UniProt Q01064); assay: PDE1B enzyme inhibition (HTRF, cGMP substrate); conditions: human recombinant enzyme (Sf9); FIGS. 14 and 15; test concentration not given
T3 construct: host or cells: Sf9
Method: The effects of BL-230 and BL-236 compounds on the activity of PDE1B human enzymes were quantified by measuring the production of guanosine 5′-monophosphate (5′GMP) from cyclic guanosine monophosphate (cGMP), using human recombinant enzyme expressed in Sf9 cells, and the detection method was by using HTRF® (Homogeneous Time Resolved Fluorescence Technology).
The test compound, the reference compound or the water (control) were mixed with 0.07 U from the enzyme PDE1B in a buffer containing 44.4 mM Tris-hydroxymethyl aminomethane hydrochloride (Tris-HCl), 5.28 mM magnesium chloride (MgCl2), 0.88 mM calcium chloride (CaCl2), 2.64 mM dithiothreitol (DTT) and 0.198 U of calmodulin and 0.044% polysorbate 20 (Tween® 20) (pH 7.8). […] The fluorescence acceptor (Dye2 labeled cGMP) and fluorescence donor (anti-cGMP antibody labeled with europium cryptate) were added in the presence of 1 mM 3-isobutyl-1-methylxanthine (IBMX). After 60 minutes, the transfer of fluorescence corresponding to the amount of residual cGMP was measured at λex=337 nm, λem=620 nm and λem=665 nm using a microplate reader (RubyStar, BMG). The enzyme activity was determined by the signal division measured at 665 nm, by the measured signal at 620 nm (right). The results were expressed as a inhibition percentage of the control enzyme activity. […]

[4] = target: T4, PDE7A (Homo sapiens, UniProt Q13946); assay: PDE7A enzyme inhibition (HTRF, cAMP substrate); conditions: human recombinant enzyme (Sf9); FIGS. 14 and 15; test concentration not given
T4 construct: host or cells: Sf9
T4 sequence (Q13946 whole entry): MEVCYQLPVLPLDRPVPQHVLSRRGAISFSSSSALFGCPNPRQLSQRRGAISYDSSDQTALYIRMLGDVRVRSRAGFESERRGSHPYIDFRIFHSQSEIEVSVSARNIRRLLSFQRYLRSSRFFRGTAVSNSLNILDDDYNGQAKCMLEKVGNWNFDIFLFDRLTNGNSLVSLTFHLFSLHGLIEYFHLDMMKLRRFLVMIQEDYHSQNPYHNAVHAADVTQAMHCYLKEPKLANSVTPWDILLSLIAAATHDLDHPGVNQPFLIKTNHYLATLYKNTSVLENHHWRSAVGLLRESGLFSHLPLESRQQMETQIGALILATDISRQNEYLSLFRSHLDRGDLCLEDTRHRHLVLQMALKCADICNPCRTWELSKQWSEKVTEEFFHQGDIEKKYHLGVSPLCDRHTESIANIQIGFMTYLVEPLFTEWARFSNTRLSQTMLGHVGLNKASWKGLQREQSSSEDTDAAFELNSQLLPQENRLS
Source text: as §1, §2

[5] = target: T5, PDE5 (Homo sapiens, UniProt O76074); assay: PDE5 enzyme inhibition (SPA, enzyme isolated from human platelets); conditions: FIGS. 14 and 15, test concentration not given
T5 construct: using an enzyme isolated from Cerep human platelets; tissue Cerep; host or cells: human platelets
Method: The effects of compounds BL-230 and BL-236 on human PDE5 enzyme activity was quantified by measuring the production of 5′GMP from cGMP using an enzyme isolated from Cerep human platelets and the utilized detection method was scintillation proximity assay (SPA).
The test compound, the reference compound or water (control) were added to a buffer containing 40 mM Tris-HCl (pH 7.8), 3 mM MgCl2, 1.4 mM DTT, 0.21% BSA, 200 mM ammonium chloride (NH4Cl), 1 μM cGMP and 0.1 μCi of [^3H]cGMP. Then the reaction was started by adding the enzyme (final amount depending on the efficiency of the isolation) and the mixture was incubated for 60 minutes at 22° C. For basal control measurements, the enzyme was omitted from the reaction mixture. Following this, the SPA incubation beads were added. After 20 min at 22° C. under agitation, the amount of [^3H] 5′GMP was quantified with a scintillation counter (Topcount, Packard). The results were expressed as an inhibition percentage of the control enzyme activity. The standard inhibitory reference compound dipyridamole was used, which was tested in each experiment at several concentrations to obtain an inhibition curve from which its IC50 value was calculated. […]

T1 sequence (Q07343 whole entry): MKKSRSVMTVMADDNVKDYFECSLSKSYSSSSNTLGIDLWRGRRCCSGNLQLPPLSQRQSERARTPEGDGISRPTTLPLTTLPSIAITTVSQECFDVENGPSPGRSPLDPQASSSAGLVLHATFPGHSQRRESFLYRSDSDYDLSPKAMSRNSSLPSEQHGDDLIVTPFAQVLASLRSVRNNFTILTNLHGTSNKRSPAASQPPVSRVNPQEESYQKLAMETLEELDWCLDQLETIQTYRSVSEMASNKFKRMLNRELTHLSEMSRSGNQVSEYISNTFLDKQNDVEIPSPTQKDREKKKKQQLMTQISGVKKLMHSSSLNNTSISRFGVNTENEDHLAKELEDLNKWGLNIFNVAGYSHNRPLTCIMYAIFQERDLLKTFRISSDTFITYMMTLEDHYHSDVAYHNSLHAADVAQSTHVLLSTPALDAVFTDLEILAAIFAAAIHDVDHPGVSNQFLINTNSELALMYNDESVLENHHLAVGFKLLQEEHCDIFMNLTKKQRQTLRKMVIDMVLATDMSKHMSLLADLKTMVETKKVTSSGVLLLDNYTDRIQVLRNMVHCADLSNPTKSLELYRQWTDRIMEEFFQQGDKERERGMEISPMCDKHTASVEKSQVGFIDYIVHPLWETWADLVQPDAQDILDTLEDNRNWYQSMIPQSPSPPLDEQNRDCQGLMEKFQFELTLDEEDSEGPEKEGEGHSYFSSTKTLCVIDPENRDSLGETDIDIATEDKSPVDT

Structure (SMILES)	inhibition of PDE4B1 enzyme activity [1]	inhibition of PDE8A1 enzyme activity [2]	inhibition of PDE1B enzyme activity [3]	inhibition of PDE7A enzyme activity [4]	inhibition of PDE5 enzyme activity [5]
O=C1C2=C(c3c[nH]c4ccccc34)OC(c3ccc4c(c3)OCO4)N2C(=O)CN1CCO (stereo not shown) [BL-230, 3-(benzo[d][1,3]dioxol-5yl)-7-(2-hydroxyethyl)-1-(1H-indol-3-yl)-6,7-dihydro-3H-oxazolo[3,4-a]pyrazine-5,8-dione]	did not inhibit	did not inhibit	did not inhibit	did not inhibit	90%
C[C@@H](CO)N1CC(=O)N2C(=C(c3c[nH]c4ccccc34)OC2c2ccc3c(c2)OCO3)C1=O (stereo partly drawn) [BL-236, 3-(benzo[d][1,3]dioxol-5yl)-7-((S)1-hydroxypropan-2yl)-1-(1H-indol-3-yl)-6,7-dihydro-3H-oxazolo[3,4-a]pyrazine-5,8-dione]	did not inhibit	did not inhibit	did not inhibit	did not inhibit	86%

— US9359378B2, “Substituted oxazolo[3,4-a]pyrazines as pharmaceutcals” (BIOLAB SANUS FARMACÊUTICA LTDA., priority 2014, dated 2016)
